Experimental data from US11969499B2, “Hydrogel delivery of sting immunotherapy for treatment cancer” (WILLIAM MARSH RICE UNIVERSITY, priority 2017, dated 2024).
“Also recorded” adds a separate entry of the source. Where two headings read alike, the source gives them in different places.

Tests used:
MOC2-E6E7 cells = test: In vitro live/dead cell viability in unloaded and CDN-loaded MDP hydrogel; assay type: cell-based; conditions: for percent cell viability per mm3 of hydrogel vs no CDN / percent cell viability per mm3 of hydrogel: Day 7; for cytocompatibility of unloaded hydrogel: no CDN, cells in 3-D gel, up to 7 days
Experimental: Preparation of cell—laden hydrogel for in vitro viability. MDP gel formulations with MOC2-E6E7 cells were prepared by diluting a cell suspension of 2,000,000 cells/mL in 2×HBSS with an equal volume of 4×CDN. The resulting suspension was then added to an equal volume of sterile 2 wt. % peptide in 298 mM sucrose and mixed to produce final samples of approximately 35,000 cells per 70 μL of 1 wt. %, 149 mM sucrose gel. Gels were then transferred into 0.4 cm 2 wells of Lab-Tek 16 well glass chamber slides (Thermo Fischer, Rochester, NY), pipetted to produce 70 μL pucks with flat profiles. Samples were allowed to shear recover for 5-10 mM before adding 200 μL cell media on top of each gel. The cell media was changed every 2 days, taking care to not dislodge the hydrogel material.
Cell viability was determined at each desired time point by performing live/dead assays as described below. Live/dead staining solution was prepared in DPBS with 2 μM Calcein AM for live cells (Life Technologies), 4 μM Ethidium homodimer for dead cells (Life Technologies), and 5 μg/mL Hoechst 33342 for nuclei (MP Biomedicals, Solon, OH). […] Cell media was removed and the gels were washed with PBS. Samples were then stained with 100 μL of prepared solution by incubating at RT for 15-30 mM. Following staining, gels were placed in PBS for immediate analysis by confocal microscopy. Gels were analyzed by z-stack imaging (100 μm) using a Nikon A1 Confocal Microscope with 20× air and 40× water objectives (405 nm blue channel laser, 488 nm green channel laser, 561 nm red channel laser). Image processing was done using NIS Elements, and live/dead cell counting was performed using the cell identification tool in Imaris 3D/4D Image Processing software, manually verified with nuclear counts when resolution allowed.

MOC2 tumors = conditions: multiple CDN injections; cited from earlier work
[1] = system: non-T cell-inflamed head and neck tumors; conditions: in vivo; cited from earlier work
MOC2-E6E7 tumors = test: Tumor growth and survival study (Examples 3-4); assay type: in vivo, C57BL/6 mice
Experimental: Tumor growth and survival study. For tumor experiments, 6-8 week old wild-type C57BL/6 female mice were maintained in a pathogen-free environment for the study. All protocols were in accordance with the guidelines for humane treatment of laboratory animals by the National Institutes of Health, the Animal Welfare Committee and the Center for Laboratory Animal Medicine and Care (CLAMC) at the University of Texas Health Science Center at Houston. Mice were injected with MOC2-E6E7 tumor cells on day 0 into the maxillary oral vestibule (30,000 cells in 30 μL volume), followed by controls or gel injections loaded with or without CDN on day 3 in the same oral cavity location (20 lag CDN per 30 μL injection). Tumor growth was measured using calipers and body weight was taken in all subjects two to three times per week. Photographs were also obtained. Kaplan-Meier survival and tumor growth curve analyses were performed from data obtained. Mice that maintained tumor clearance for 100 days were re-challenged with MOC2-E6E7 tumor cells again at day 105 and monitored similarly. All endpoints in tumor growth curve and survival data are a result of euthanasia due to excessive tumor burden, defined as tumor reaching 12 mm, tumor ulceration, or a weight loss of greater than 20%. The inventors observed no signs of unexpected disease or discomfort in the mice over the course of the experiments.
Statistical methods. Statistical analyses for Kaplan-Meier survival curves were performed using the log-rank/Mantel-Cox test with GraphPad Prism (GraphPad, San Diego, CA). For tumor growth curves, the Wilcoxon rank sum test was used to compare tumor size between STINGel and other groups. No adjustment for multiple testing was made because the study is novel and exploratory. All p values are two-sided and p values less than 0.05 were considered as significant. All statistical analyses were performed using the SAS software (version 9.4, the SAS Institute, Cary, NC).

MOC-2-E6E7 tumors = test: MOC-2-E6E7 orthotopic murine model of HNSCC, survival (Example 2, FIG. 2E); design: species or system C57BL/6 mice; conditions: mouse, in vivo
Experimental: MOC-2-E6E7 Orthotopic murine model of HNSCC. 6 week-old male and female C57BL/6 mice will be inoculated in the left maxillary vestibule with MOC-2-E6E7 cells (30,000 cells in 30 μl volume). Animals will be monitored using a body condition scoring system to ensure they maintain a healthy weight and show no obvious signs of distress. At Day 14 post-tumor inoculation, STINGel (20 jug CDN in 30 μl of MDP hydrogel) or controls (as above) are injected into the oral tumor site. Animal studies will be done in triplicate, independent experiments for significance. Between-group differences in flow cytometric data will be statistically evaluated with one-way ANOVA and post-hoc analysis using Tukey's method. Differences between groups will be considered significant if p<0.05. In efficacy studies, Kaplan-Meier survival curves will be compared using the log-rank/Mantel-Cox test and tumor growth curves will be analyzed using the Koziol method (Koziol et al., 1981; 1982).

MOC1 tumors = conditions: multiple intratumoral injections of CDN alone, cited from earlier work
[2] = CDN drug release kinetics from hydrogels (UV absorbance at 259 nm); assay type: physicochemical; conditions: for CDN release compared to collagen (FIG. 5B): 30 μL gels, 910 μM CDN, under 200 μL HBSS, 24 h; for release profile of gels (FIG. 3A): CDN release, preliminary data
Experimental: CDN release kinetics. 30 μL CDN-loaded gel aliquots are deposited into 96 well plates with 200 μL of buffer added to the top of the gels at time point t=0. For all kinetics experiments, a Thermo Scientific Nanodrop 2000C Spectrophotometer is used to measure UV absorbance at 259 nm, the characteristic wavelength of maximum absorbance for the adenine nucleobases present in the CDN. See FIG. 1A for an example of preliminary release kinetics data.
CDN drug release kinetics. To study the kinetics of CDN release from STINGel vs. collagen gel, 30 μL CDN-loaded gel aliquots were deposited into Falcon® 96 well flat bottom polystyrene plates (Becton Dickinson Labware, Franklin Lakes, NJ). For each experiment, cylindrical pucks of the 30 μL gel aliquots were created in each well, allowing the pipetted gels to shear recover for at least 5 mM before adding 200 μL of buffer (1×HBSS for STINGel, lx DPBS for collagen, according to gelation requirements) to the top of the gels at what was defined as t=0 for the start of kinetics experiments. The buffer height was approximately 2.5 mm, the gel thickness approximately 0.5 mm, and the gel's solvent exposed surface area approximately 12.6 mm^2.
A Thermo Scientific Nanodrop 2000C Spectrophotometer was used to measure UV absorbance at 259 nm, the characteristic wavelength of maximum absorbance for the CDN's adenine nucleobases. An extinction coefficient of 24,000 M^−1 cm^−1 at 259 nm was used. Absorbance measurements were taken by removal of 1 μL aliquots from the surface of the buffers, measuring the increase in absorbance over time. Release of CDN was measured over the course of the first 24 hours and converted to total percent released, with additional measurements also made at 48 and 72 hours to confirm that the samples had reached equilibrium.

[3] = system: CD45+/CD11b+/CD11c+ dendritic cells; test: Flow cytometric analysis of implant infiltration; assay type: in vivo, mice; conditions: for recruitment of immune cells to the hydrogel in vivo: subcutaneous flank of mice, within 3 days
Experimental: Flow cytometric analysis of implant infiltration. Implanted gels are harvested from mice, digested and processed into single cell suspension. Cells are incubated with blocking antibody, followed by addition of antibodies to create three panels: myeloid cells (CD45, Gr-1, Ly-6C, CD11b, F4/80), lymphoid cells (CD45, NK-1.1, CD11b, CD3e, CD8a, CD4, CD19) and dendritic cells (CD45, CD8a, CD11b, CD11c, PDCA-1 and CD103). For each time point five mice with two hydrogel boluses are assessed for an n of 10.

[4] = In vivo subcutaneous hydrogel implants, histology (Masson's trichrome, H&E); conditions: 910 μM CDN where loaded
Experimental: In vivo subcutaneous implants. 200 μL subcutaneous injections are made in two separate 1-inch spaced sites on the dorsal flank. At tested time points mice are euthanized and the dorsal skin around the entire implant is removed, washed with PBS, and fixed in formalin for 24 hours prior to tissue processing (Wellings & Atherton, 1997; Guy & Fields, 1997). Details are provided in the Vertebrate Animal section. Tissue is processed to paraffin blocks, sectioned at 7 μm, deparaffinized and stained for cellular infiltrate using hematoxylin and eosin (H&E) and Masson's Trichrome. Here, and elsewhere, male and female populations will be assessed combined as well as separately to determine if sexual dichotomy exists in the biomaterial interaction and regenerative response.
Subcutaneous experiments and histology. Male/female mice (C57BL/6 strain) of age 8-12 weeks were obtained for subcutaneous experiments, which were conducted with Rice IACUC approval and according to NIH guidelines. Mice were injected with 40 μL CDN-loaded hydrogel (910 μM CDN) or 100 μL unloaded hydrogel in each of four separate sites in the subcutaneous space of the dorsal flank. At days 3 and 7 the mice were euthanized and the dorsal skin around the entire implant was removed, fixed overnight in 10% neutral buffered formalin, processed and paraffin embedded by the Baylor College of Medicine Pathology Core, and finally sectioned at 5 μm thickness for Masson's trichrome staining and hematoxylin and eosin (H&E) staining (FIGS. 14A-F and 16A-F).

[5] = 30 μL gels loaded with 910 μM CDN under 200 μL buffer

Nc1ncnc2c1ncn2[C@@H]1O[C@@H]2COP(O)(=S)O[C@@H]3C(O)[C@@H](COP(O)(=S)O[C@H]2[C@H]1O)O[C@H]3n1cnc2c(N)ncnc21 (stereo partly drawn) [CDN, dithio-(RP,RP)-[cyclic[A(2′,5′)pA(3′,5′)p]]]
percent cell viability per mm3 of hydrogel vs no CDN (MOC2-E6E7 cells; 5 μM CDN): equivalent
percent cell viability per mm3 of hydrogel vs no CDN (MOC2-E6E7 cells; 57 μM CDN): equivalent
percent cell viability per mm3 of hydrogel vs no CDN (MOC2-E6E7 cells; 114 μM CDN): equivalent
percent cell viability per mm3 of hydrogel (MOC2-E6E7 cells; 228 μM CDN): reduced cell viability
percent cell viability per mm3 of hydrogel (MOC2-E6E7 cells; 455 μM CDN): no cell viability
percent cell viability per mm3 of hydrogel (MOC2-E6E7 cells; 910 μM CDN): no cell viability
max tolerable dose cells can experience in their local environment (MOC2-E6E7 cells; without the massive cell death observed at 455 μM and above): 228 µM
tumor rejection (MOC2 tumors): unsuccessful MOC2 tumor rejection
efficacy [1]: completely ineffective
mice surviving until the endpoint of the study (MOC2-E6E7 tumors; 140 days post-tumor cell inoculation, single injection day 3, 20 μg CDN in 30 μL, n=10): 10%
effect on tumor growth (MOC2-E6E7 tumors; single injection day 3 post inoculation): ineffective in preventing tumor growth
mortality before day 60 (MOC-2-E6E7 tumors): 100%
efficacy / tumor rejection (MOC1 tumors): only to a subset of MOC1 tumor rejection
efficacy / tumor rejection (MOC1 tumors; listed as CDN alone): minimal efficacy

E2(SL)6E2 (SEQ ID NO: 3) (EESLSLSLSLSLSLEE) [additional multidomain peptide hydrogel with glutamate termini]
CDN release compared to collagen (FIG. 5B) [2]: better (slower) release compared to collagen
release profile of gels (FIG. 3A) [2]: intermediate release rates

K2(SL)6K2 (SEQ ID NO: 1) (Ac-KKSLSLSLSLSLSLKK-NH2) [MDP gel, self-assembling multidomain peptide hydrogel, acetylated N-terminus and C-terminal amide]
recruitment of immune cells to the hydrogel in vivo ([3]; listed as Lys-MDP): substantial population
recruitment of immune cells to the hydrogel in vivo ([3]; listed as MDP hydrogel): robust recruitment of immunocytes
CD45+/CD11b+/CD11c+ dendritic cells ([3]; three days after subcutaneous injection, un-loaded): 13.5%
cytocompatibility of unloaded hydrogel (MOC2-E6E7 cells; listed as Lys-MDP): substantial MOC-2-E6E7 proliferation (green cells) & minimal cell death
cytocompatibility of unloaded hydrogel (MOC2-E6E7 cells; listed as MDP hydrogel): not intrinsically toxic
cytocompatibility of unloaded hydrogel (MOC2-E6E7 cells; listed as unloaded MDP gel): fully biocompatible
cytocompatibility of unloaded hydrogel (MOC2-E6E7 cells; listed as unloaded MDP hydrogel): cells are able to survive and proliferate within the 3-D hydrogel matrix
decrease in release rate compared to collagen control gels, factor [2, 5]: 8
maximum release of loaded CDN (plateau/equilibrium) [2, 5]: approximately 68%
release rate in the initial linear release phase [2, 5]: 1.0 nmol CDN/hour
time of CDN release until equilibrium with surrounding buffer [2, 5]: 14 to 15 h
release profile of gels (FIG. 3A) [2]: intermediate release rates
mice maintaining tumor clearance and reaching reinoculation point (MOC2-E6E7 tumors; day 105 after initial inoculation, n=10 per group): No mice
mortality before day 60 (MOC-2-E6E7 tumors): 100%
cellular infiltration of implant ([4]; 3 days post subcutaneous injection, listed as MDP control): even infiltration of cells
cellular infiltration of implant ([4]; 3 days post subcutaneous injection, listed as MDP unloaded control): even infiltration of cells
cellular infiltration of implant ([4]; 3 days post subcutaneous injection, listed as unloaded MDP): Uniform cellular infiltration
cellular infiltration of implant ([4]; 7 days post subcutaneous injection): even infiltration of cells

R2(SL)6R2 (SEQ ID NO: 4) (RRSLSLSLSLSLSLRR) [additional multidomain peptide hydrogel with arginine termini]
CDN release compared to collagen (FIG. 5B) [2]: better (slower) release compared to collagen; also recorded: the best of the group
release profile of gels (FIG. 3A) [2]: slowest, most prolonged release
